In patent publication US20110152091A1, “Herbicidal Compositions Comprising Flufenacet” (BAYER CROPSCIENCE AG, priority 2009, published 2011):

Legend:
Format in all cases: in vivo
Avena fatua (AVEFA) [1] = test: Greenhouse trial: different soil pH values on PE application (test method 11); conditions: for activity AVEFA pH 7.4 (visual, scale 0-100%): soil pH 7.4, g of AS/ha: A 90, B 90, C 140, mixture 90 + 90 + 140; for activity AVEFA pH 8.4 (visual, scale 0-100%): soil pH 8.4, g of AS/ha: A 90, B 90, C 140, mixture 90 + 90 + 140
Description: (§1) In the standard design of the test, seeds of various broad-leaved weed and weed grass biotypes (origins) were sown in a 8-13 cm diameter pot filled with natural soil of a standard field soil (loamy silt; non-sterile) and covered with a covering soil layer of about 1 cm. The pots were then cultivated in a greenhouse (12-16 h of light, temperature day 20-22° C., night 15-18° C.) until the time of application. The pots were treated on a laboratory track sprayer with spray liquors comprising the compositions according to the invention, mixtures of the prior art or components used individually. Application of the active compounds or active compound combinations formulated as WG, WP, EC or otherwise was carried out at the appropriate growth stages of the plants. The application rate for the spray application was 100-600 l of water/ha. After the treatment, the plants were returned to the greenhouses.
(§2) About 3 weeks after the application, the soil action or/and foliar action was assessed visually according to a scale of 0-100% in comparison to an untreated comparative group: 0%=no noticeable effect compared to the untreated comparative group; 100%=full effect compared to the untreated comparative group.
(§3) (notes: the term “seeds” also includes vegetative propagation forms such as, for example, rhizome pieces; abbreviations used: h light=hours of illumination, g of AS/ha=gram of active substance per hectare, l/ha=liter per hectare, S=sensitive, R=resistant) • 1. Pre-emergence action against weeds: seeds of various broad-leaved weed and weed grass biotypes (origins) were sown in a 8-13 cm diameter pot filled with natural soil of a standard field soil (loamy silt; non-sterile) and covered with a covering soil layer of about 1 cm. The pots were then cultivated in a greenhouse (12-16 h of light, temperature day 20-22° C., night 15-18° C.) until the time of application. The pots were treated at the BBCH stage 00-10 of the seeds/plants on a laboratory track sprayer with spray liquors comprising the compositions according to the invention, mixtures or components used individually, as WG, WP, EC or other formulations. The application rate for the spray application was 100-600 l of water/ha. After the treatment, the plants were returned to the greenhouses and, when required, treated with fertilizer and watered. • 2. Post-emergence action against weeds: seeds of various broad-leaved weed and weed grass biotypes (origins) were sown in a 8-13 cm diameter pot filled with natural soil of a standard field soil (loamy silt; non-sterile) and covered with a covering soil layer of about 1 cm. The pots were then cultivated in a greenhouse (12-16 h of light, temperature day 20-22° C., night 15-18° C.) until the time of application. The pots were treated at various BBCH stages between 11-25 of the seeds/plants, i.e. generally between two to three weeks after the start of the cultivation, on a laboratory track sprayer with spray liquors comprising the compositions according to the invention, mixtures or components used individually, as WG, WP, EC or other formulations. The application rate for the spray application was 100-600 l of water/ha. After the treatment, the plants were returned to the greenhouses and, when required, treated with fertilizer and watered. • 3. Pre-emergence action against weeds with and without incorporation of active compound: seeds of various broad-leaved weed and weed grass biotypes (origins) were sown in a 8-13 cm diameter pot filled with natural soil of a standard field soil (loamy silt; non-sterile). […]

[2] = tested on: Matricaria chamomilla (MATCH); test: Greenhouse trial: different sowing depths on PE application (test method 9); conditions: g of AS/ha: A 90, B 90, C 140, mixture 90 + 90 + 140
Description: as §1
as §2, with “group. […]” for “group.”

[3] = tested on: Apera Spica-venti (APESV); test: Greenhouse trial: PO application (test methods 2 and 5); conditions: g of AS/ha: A 240, B 120, C 140, mixture 240 + 120 + 140
Description: as §1
as §2, with “group. […]” for “group.”

Stellaria media (STEME) [4] = test: Greenhouse trial: PE soil application vs incorporation into the soil (test methods 1, 3 and 4); conditions: g of AS/ha: A 75, B 60, C 70, mixture 75 + 60 + 70
Description: as §1, §2, §3

Poa annua (POAAN) = test: as above; conditions: g of AS/ha: A 75, B 60, C 70, mixture 75 + 60 + 70
Description: as §1, §2, §3

[5] = tested on: Hordeum vulgare, summer barley (HORVS); test: Greenhouse trial: different sowing depths on PE application, crop plant (test method 9); conditions: g of AS/ha: A 90, B 90, C 140, mixture 90 + 90 + 140; for activity HORVS 5 mm (visual, scale 0-100%): Sowing depth 5 mm; for activity HORVS 20 mm (visual, scale 0-100%): Sowing depth 20 mm
Description: as §1, §2, §3

[6] = tested on: Hordeum vulgare, summer barley (HORVS); test: Greenhouse trial: different soil pH values on PE application, crop plant (test method 11); conditions: for activity HORVS pH 7.4 (visual, scale 0-100%): soil pH 7.4, g of AS/ha: A 90, B 90, C 140, mixture 90 + 90 + 140; for activity HORVS pH 8.4 (visual, scale 0-100%): soil pH 8.4, g of AS/ha: A 90, B 90, C 140, mixture 90 + 90 + 140
Description: as §1, §2, §3

[7] = tested on: Hordeum vulgare, summer barley (HORVS); test: Greenhouse trial: PO application, crop plant (test methods 2 and 5); conditions: g of AS/ha: A 240, B 120, C 140, mixture 240 + 120 + 140
Description: as §1, §2
(notes: the term “seeds” also includes vegetative propagation forms such as, for example, rhizome pieces; abbreviations used: h light=hours of illumination, g of AS/ha=gram of active substance per hectare, l/ha=liter per hectare, S=sensitive, R=resistant) • 1. Pre-emergence action against weeds: seeds of various broad-leaved weed and weed grass biotypes (origins) were sown in a 8-13 cm diameter pot filled with natural soil of a standard field soil (loamy silt; non-sterile) and covered with a covering soil layer of about 1 cm. The pots were then cultivated in a greenhouse (12-16 h of light, temperature day 20-22° C., night 15-18° C.) until the time of application. […]

[8] = tested on: Lolium species (LOLSS), sensitive and resistant biotypes; test: Greenhouse trial: resistant biotypes following PE application (test method 8); conditions: g of AS/ha: A 90, B 90, C 140, mixture 90 + 90 + 140, iodosulfuron 10
Description: as §1
as §2, with “group. […]” for “group.”

[9] = tested on: Triticum aestivum, winter wheat (TRZAW); test: Greenhouse trial: pre-sowing method vs PE application, crop plant (test method 6); conditions: g of AS/ha: A 90, B 90, C 140, mixture 90 + 90 + 140
Description: as §1, §2, §3

[10] = tested on: Triticum aestivum, winter wheat (TRZAW); test: Greenhouse trial: PE soil application vs incorporation into the soil, crop plant (test methods 1, 3 and 4); conditions: g of AS/ha: A 75, B 60, C 70, mixture 75 + 60 + 70
Description: as §1, §2, §3

[11] = tested on: Matricaria chamomilla (MATCH); test: Greenhouse trial: different soil types (test method 7); conditions: g of AS/ha: A 90, B 90, C 140, mixture 90 + 90 + 140
Description: as §1, §2, §3

Stellaria media (STEME) [12] = test: as above; conditions: g of AS/ha: A 90, B 90, C 140, mixture 90 + 90 + 140
Description: as §1, §2, §3

Lolium perenne (LOLPE) = test: Greenhouse trial: pre-sowing method vs PE application (test method 6); conditions: g of AS/ha: A 90, B 90, C 140, mixture 90 + 90 + 140
Description: as §1, §2, §3

Avena fatua (AVEFA) [13] = test: as above; conditions: g of AS/ha: A 90, B 90, C 140, mixture 90 + 90 + 140
Description: as §1, §2, §3

[14] = tested on: Hordeum vulgare, summer barley (HORVS); test: Greenhouse trial: different soil types, crop plant (test method 7); conditions: g of AS/ha: A 90, B 90, C 140, mixture 90 + 90 + 140
Description: as §1, §2, §3

[15] = Application 7 days prior to sowing

SMILES: CSc1nnc(C(C)(C)C)c(=O)n1N [(C) metribuzin, 4-amino-6-(1,1-dimethylethyl)-3-(methylthio)-1,2,4-triazin-5(4H)-one]
- activity AVEFA pH 7.4 (visual, scale 0-100%) (Avena fatua (AVEFA) [1]): 90%
- activity AVEFA pH 8.4 (visual, scale 0-100%) (Avena fatua (AVEFA) [1]): 90%
- activity MATCH 5 mm (visual, scale 0-100%) ([2]; Sowing depth 5 mm): 100%
- activity MATCH 20 mm (visual, scale 0-100%) ([2]; Sowing depth 20 mm): 70%
- activity APESV (visual, scale 0-100%) [3]: 79%
- activity STEME (visual, scale 0-100%) (Stellaria media (STEME) [4]; Incorporation into the soil): 0%
- activity STEME (visual, scale 0-100%) (Stellaria media (STEME) [4]; PE application): 75%
- activity POAAN (visual, scale 0-100%) (Poa annua (POAAN); Incorporation into the soil): 15%
- activity POAAN (visual, scale 0-100%) (Poa annua (POAAN); PE application): 0%
- activity HORVS 5 mm (visual, scale 0-100%) [5]: 70%
- activity HORVS 20 mm (visual, scale 0-100%) [5]: 30%
- activity HORVS pH 7.4 (visual, scale 0-100%) [6]: 40%
- activity HORVS pH 8.4 (visual, scale 0-100%) [6]: 50%
- activity HORVS (visual, scale 0-100%) [7]: 70%
- activity LOLSS resistant (visual, scale 0-100%) ([8]; resistant biotype): 70%
- activity LOLSS sensitive (visual, scale 0-100%) ([8]; sensitive biotype): 70%
- activity TRZAW (visual, scale 0-100%) [9, 15]: 0%
- activity TRZAW (visual, scale 0-100%) ([9]; PE application): 55%
- activity TRZAW (visual, scale 0-100%) ([10]; Incorporation into the soil): 55%
- activity TRZAW (visual, scale 0-100%) ([10]; PE application): 30%
- activity MATCH IU soil (visual, scale 0-100%) [11]: 0%
- activity MATCH IU/EC73 soil (visual, scale 0-100%) ([11]; IU/EC73 soil): 15%
- activity STEME IU soil (visual, scale 0-100%) (Stellaria media (STEME) [12]): 75%
- activity STEME IU/EC73 soil (visual, scale 0-100%) (Stellaria media (STEME) [12]): 5%
- activity LOLPE (visual, scale 0-100%) (Lolium perenne (LOLPE); [15]): 10%
- activity LOLPE (visual, scale 0-100%) (Lolium perenne (LOLPE); PE application): 50%
- activity AVEFA (visual, scale 0-100%) (Avena fatua (AVEFA) [13]; [15]): 0%
- activity AVEFA (visual, scale 0-100%) (Avena fatua (AVEFA) [13]; PE application): 10%
- activity HORVS IU soil (visual, scale 0-100%) [14]: 0%
- activity HORVS IU/EC73 soil (visual, scale 0-100%) [14]: 0%

SMILES: CC(C)N(C(=O)COc1nnc(C(F)(F)F)s1)c1ccc(F)cc1 [(A) flufenacet, N-(4-fluorophenyl)-N-(1-methylethyl)-2-[[5-(trifluoromethyl)-1,3,4-thiadiazol-2-yl]oxy]acetamide]
- activity AVEFA pH 7.4 (visual, scale 0-100%) (Avena fatua (AVEFA) [1]): 80%
- activity AVEFA pH 8.4 (visual, scale 0-100%) (Avena fatua (AVEFA) [1]): 55%
- activity APESV (visual, scale 0-100%) [3]: 65%
- activity STEME (visual, scale 0-100%) (Stellaria media (STEME) [4]; PE application): 0%
- activity POAAN (visual, scale 0-100%) (Poa annua (POAAN); Incorporation into the soil): 90%
- activity POAAN (visual, scale 0-100%) (Poa annua (POAAN); PE application): 65%
- activity HORVS 5 mm (visual, scale 0-100%) [5]: 30%
- activity HORVS 20 mm (visual, scale 0-100%) [5]: 20%
- activity HORVS pH 7.4 (visual, scale 0-100%) [6]: 10%
- activity HORVS pH 8.4 (visual, scale 0-100%) [6]: 10%
- activity HORVS (visual, scale 0-100%) [7]: 60%
- activity TRZAW (visual, scale 0-100%) [9, 15]: 60%
- activity TRZAW (visual, scale 0-100%) ([9]; PE application): 30%
- activity TRZAW (visual, scale 0-100%) ([10]; Incorporation into the soil): 60%
- activity TRZAW (visual, scale 0-100%) ([10]; PE application): 20%
- activity MATCH IU soil (visual, scale 0-100%) [11]: 28%
- activity STEME IU soil (visual, scale 0-100%) (Stellaria media (STEME) [12]): 0%
- activity STEME IU/EC73 soil (visual, scale 0-100%) (Stellaria media (STEME) [12]): 0%
- activity LOLPE (visual, scale 0-100%) (Lolium perenne (LOLPE); PE application): 90%
- activity AVEFA (visual, scale 0-100%) (Avena fatua (AVEFA) [13]; PE application): 80%
- activity HORVS IU soil (visual, scale 0-100%) [14]: 10%
- activity HORVS IU/EC73 soil (visual, scale 0-100%) [14]: 0%
